# According to patent US9200046B2, “Reporter system for high throughput screening of compounds and uses thereof” (priority 2011, dated 2015):
# Structures can show the parent of a compound that is named as a salt. Where two headings read alike, the source gives them in different places.
# Target: Nrf2-Keap1 complex (Homo sapiens, UniProt Q14145)
# Assay: cell-based
# Format: cell-based
# Conditions: for activation at 16 µM / activation at 32 µM: 3 h; for activation at 16 µM: read-out: Activation 100 nL; for activation at 32 µM: read-out: Activation 200 nL
# [1] = Table 2, 100 nL compound, screen run at 16 and 32 μM, 3 hr
# [2] = Table 2, 200 nL compound, screen run at 16 and 32 μM, 3 hr
# [3] = Table 1A, 100 nL compound, screen run at 16 and 32 μM, 3 hr
# [4] = Table 1A, 200 nL compound, screen run at 16 and 32 μM, 3 hr
# Nrf2-Keap1 complex, sequence (Q14145 whole entry, one chain of several): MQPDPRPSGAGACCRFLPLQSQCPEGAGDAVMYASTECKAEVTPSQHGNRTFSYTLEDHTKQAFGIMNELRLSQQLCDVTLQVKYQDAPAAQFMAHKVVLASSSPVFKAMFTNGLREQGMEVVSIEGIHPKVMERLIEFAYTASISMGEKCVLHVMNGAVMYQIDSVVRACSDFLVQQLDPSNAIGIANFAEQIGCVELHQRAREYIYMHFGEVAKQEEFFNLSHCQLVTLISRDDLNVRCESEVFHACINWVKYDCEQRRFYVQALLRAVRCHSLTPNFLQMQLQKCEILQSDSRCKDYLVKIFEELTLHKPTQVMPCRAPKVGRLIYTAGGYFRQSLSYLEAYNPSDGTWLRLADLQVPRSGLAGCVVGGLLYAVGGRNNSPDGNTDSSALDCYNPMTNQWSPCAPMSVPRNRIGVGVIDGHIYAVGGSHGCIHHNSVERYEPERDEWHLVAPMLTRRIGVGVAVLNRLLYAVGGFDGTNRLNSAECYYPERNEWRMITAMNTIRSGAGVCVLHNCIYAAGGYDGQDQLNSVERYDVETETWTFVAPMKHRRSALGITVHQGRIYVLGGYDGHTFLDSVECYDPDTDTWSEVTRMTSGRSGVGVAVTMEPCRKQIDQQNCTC
Compound,Activation 100 nL [%],Activation 200 nL [%],100 nL (luminescence) [1],200 nL (luminescence) [2],activation at 16 µM [%],activation at 32 µM [%],other results
COc1c(O)cc2oc3cc(O)c(CC=C(C)C)c(O)c3c(=O)c2c1CC=C(C)C [alpha-MANGOSTIN],28,−19,–,–,–,–,100 nL (luminescence): 736; 200 nL (luminescence): 16
"CC1(C)C(=O)C=C[C@]2(C)[C@H]3CC[C@@]4(C)[C@H](c5ccoc5)OC(=O)[C@H]5O[C@]54[C@]3(C)C=C[C@@H]12 [7-DESACETOXY-6,7-DEHYDROGEDUNIN]",85,−9,1660,188,–,–,–
CC(=O)O[C@@H]1C[C@H]2C(C)(C)[C@@H](O)CC[C@]2(C)[C@H]2CC[C@@]3(C)[C@H](c4ccoc4)OC(=O)[C@H]4O[C@]43[C@@]21C [beta-DIHYDROGEDUNOL],217,124,2270,3252,–,–,Neh2-luc reporter activation: 220%
"COc1cc(O)c(C(=O)/C=C/c2ccc(O)c(OC)c2)c(OC)c1 [2′,4-DIHYDROXY-3,4′,6′-TRIMETHOXYCHALCONE]",–,–,6104,7512,655,305,–
Cc1cc(O)ccc1Cl [CHLOROCRESOL],–,–,–,–,25,-5,–
O=c1cc(-c2cc(O)c(O)c(O)c2)oc2cc(O)cc(O)c12 [HIERACIN],160,60,2502,1832,–,–,–
"O=c1oc2cc(O)ccc2s1 [TIOXOLONE, reference compound]",–,–,3542,768,156,31,–
"CN1CCN(CC/C=C2/c3ccccc3Sc3ccc(S(=O)(=O)N(C)C)cc32)CC1 [THIOTHIXENE, reference compound]",–,–,1500,68,55,-26,–
CCc1cccc(CC)c1N(COC)C(=O)CCl [ALACHLOR],–,–,3852,4892,261,194,–
COC(=O)[C@H](O)[C@H]1C(C)(C)[C@H](OC(C)=O)[C@@H]2CC3=C4CC(=O)O[C@@H](c5ccoc5)[C@]4(C)CC[C@@H]3[C@@]1(C)C2=O [SWIETENOLIDE-3-ACETATE],70,115,1430,2088,–,–,–
CC(=O)O[C@H]1C[C@@H](OC(C)=O)C(C)(C)[C@@H]2CC(=O)[C@]3(C)[C@H](CC[C@@]4(C)[C@H](c5ccoc5)OC(=O)[C@H]5O[C@]543)[C@@]12C [7-DEACETOXY-7-OXOKHIVORIN],168,128,2924,2284,–,–,–
O=c1c(O)cccc2cc(O)c(O)c(O)c12 [PURPUROGALLIN],–,–,3508,2420,156,112,–
COc1ccc(-c2oc3cc(O[C@@H]4O[C@H](CO)[C@@H](O)[C@H](O)[C@H]4O)c(OC)c(O)c3c(=O)c2OC)cc1O [CENTAUREIN],–,–,916,876,41,19,–
"[H]/N=C(\N/C(=N/[H])NCCCCCCNC(=N)NC(=N)Nc1ccc(Cl)cc1)Nc1ccc(Cl)cc1 [CHLORHEXIDINE, reference compound]",147,67,2188,1750,–,–,–
COC(=O)c1c(C)cc(O)cc1O [METHYLORSELLINATE],–,–,640,368,31,1,–
[…](CAPE),245,−14,2508,16,–,–,–

Compound,Activation 100 nL [%],Activation 200 nL [%],100 nL (luminescence) [1],200 nL (luminescence) [2],activation at 16 µM [%],activation at 32 µM [%],other results
"COC(=O)Nc1nc2cc(C(=O)c3cccs3)ccc2[nH]1 [NOCODAZOLE, reference compound]",–,–,–,–,28,48,100 nL (luminescence) [3]: 940; 200 nL (luminescence) [4]: 980
CC(C)C1=CC2=CC[C@@H]3[C@](C)(CCC[C@@]3(C)C(=O)O)[C@H]2CC1 [ABIETICACID],–,–,–,–,67,57,100 nL (luminescence): 1256; 200 nL (luminescence): 1748
COc1cc(C/C=C/c2ccccc2)c(OC)cc1O [VIOLASTYRENE],–,–,2388,1096,133,50,–
CCOP(=S)(OCC)Oc1nc(Cl)c(Cl)cc1Cl [CHLORPYRIFOS],–,–,1572,1704,90,55,–
"C[C@]12C=CC(=O)C=C1CC[C@@H]1[C@@H]2[C@@H](O)C[C@@]2(C)[C@H]1CC[C@]2(O)C(=O)CO [PREDNISOLONE, reference compound]",–,–,–,–,42,53,100 nL (luminescence): 864; 200 nL (luminescence): 1452
COc1cc(O)cc(OC)c1OC [ANTIAROL],–,–,1016,2248,74,81,–
NCCc1ccc(O)c(O)c1 [3-HYDROXYTYRAMINE],–,–,–,–,37,69,100 nL (luminescence): 990; 200 nL (luminescence): 1704
O=C(O)/C=C/c1ccc(O)c(O)c1 [[…]],–,–,1040,1840,50,61,–
COc1ccc2c(c1)OCC(=Cc1ccc(O)c(O)c1)C2=O,292,169,4822,2904,–,–,–
NCCCCNCCCN [SPERMIDINETRIHYDROCHLORIDE],–,–,1000,860,72,22,–
CCC(C)C(=O)c1c(O)c(C)c2oc3c(C)c(O)c(C(=O)C(C)CC)c(O)c3c2c1O (stereo not shown) [RHODOMYRTOXINB],–,–,–,–,56,36,100 nL (luminescence) [3]: 1120; 200 nL (luminescence) [4]: 1276
"COc1ccc(-c2oc3ccccc3c(=O)c2O)cc1OC [3-HYDROXY-3′,4′-DIMETHOXYFLAVONE]",–,–,1504,316,85,-6,fold less effective than quercetin and fisetin (flavone SAR): 2.5 fold
O=C1C=C2C=C[C@@H]3C[C@@]2(O1)[C@H]1CCCCN31 [SECURININE],–,–,2068,176,84,-14,–
O=C1C[C@@H](c2ccc(O)c(O)c2)Oc2cc(O)cc(O)c21 [ERIODYCTOL],76,18,1028,768,–,–,–
"O=C(/C=C/c1ccccc1)c1ccc(O[C@@H]2O[C@H](CO)[C@@H](O)[C@H](O)[C@H]2O)cc1O [2′,4′-DIHYDROXYCHALCONE4′-GLUCOSIDE]",33,121,1056,2592,–,–,–
